{"source": "paper PMC7246635", "about": "“Structure–Activity Relationship of RGD-Containing Cyclic Octapeptide and αvβ3 Integrin Allows for Rapid Identification of a New Peptide Antagonist” (International Journal of Molecular Sciences, 2020)", "key": {"αvβ3 integrin [1]": {"system": "αvβ3 integrin", "details": "cited from earlier work", "text": "In our current study, 20 new LXW analogs were predicted via in silico screening with a high binding affinity to αvβ3 integrin. […] These X7 amino acids can be classified into two groups according to their side-chain structures—cyclic (total 13) and non-cyclic (aliphatic, total 7). […] Among the cyclic amino acids, the aromatic (mainly polycyclic excepted DPH ..."}, "αvβ3 integrin [2]": {"molecular_target": "T1, αvβ3 integrin (Homo sapiens, UniProt P05106+P06756)", "T1 construct": "expressed in transfected cells; host or cells: K562 human leukemia cells (ATCC) transfected with αvβ3 integrin", "test": "Competitive binding assay by flow cytometry: competition with 1 μM biotinylated LXW7 binding to αvβ3-K562 cells", "description": "To further verify our in silico screening results, we examined the binding of new LXW-analogous peptides to αvβ3 integrin in αvβ3-K562 cells. LXZ2 with DNTL as the X7 residue (Figure 6 left) was arbitrarily chosen and tested through flow cytometry for competing with 1 μM biotinylated LXW7 binding to αvβ3 integrin. […] The IC50 of the peptide inhibiting biotinylated LXW7 binding with K562/αvβ3+ cells was determined (Figure 6 right).\nFigure 6 (A) Chemical structure of LXZ2; (B) Competitive binding assay. […] Positive control (cyan), cells were treated with 1μM biotinylated LXW7 and streptavidin-PE successively, and measured with flow cytometry. Negative control (red) represents cells without treatment of biotinylated LXW7. (C) IC50 measurement of LXW7 and LXZ2. The IC50s were determined with competitive binding assay by using a series of concentrations of LXW7 or LXZ2 competing with 1 μM biotinylated LXW7 binding to αvβ3-K562 cells. TEXT PRINTED IN THE PICTURE: (C) LXW7: IC50(μM): 1.53 | (C) LXZ2: IC50(μM): 0.31\nThe human leukemia cancer cells (K562, ATCC, Manassas, VA, USA) transfected with αvβ3-integrin were grown in the RPMI1640 medium and used for the assay as previously described. […] The samples were washed with 1 mL PBS containing 1% FBS for three times, then incubated with a 1:500 dilution of streptavidin-PE (1 mg/mL) for 30 min on ice followed by a single wash with 1 mL of PBS containing 1% FBS. Finally, the samples were analyzed via flow cytometry (Coulter XL-MCL). To measure the half-maximal inhibitory concentration (IC50) of the peptides, various diluted peptide solutions were mixed with 1.0 μM biotinylated LXW7, then incubated with cells, and followed by streptavidin-PE incubation. The samples were run through flow cytometer and Mean Fluorescence Intensity was decided for each individual sample. The IC50s were calculated from each sample based on the readings."}, "αvβ3 integrin [3]": {"molecular_target": "T1, αvβ3 integrin", "details": "cited from earlier work", "text": "Targeting tumor cells or tumor vasculature by RGD-based strategies is a promising approach for delivering anticancer drugs or contrast agents for cancer therapy and diagnosis. RGD-based strategies include RGD peptide or peptidomimetic drugs, RGD-conjugates, and the grafting of the RGD peptide or peptidomimetic, as targeting ligand, at the surfa ... || (+ 4 further places)"}, "αIIbβ3": {"system": "αIIbβ3", "details": "integrin expressed on K562 cells; cited from earlier work", "text": "(§1) Structure–activity relationship between LXW peptides and αvβ3 LXW analogs are a new category of RGD-containing cyclopeptides that binds specifically to αvβ3 integrin [7, 8]. The LXW analogs were designed and screened using OBOC combinatorial technology. Unlike other RGD cyclopeptide antagonists (i.e., cilengitide), LXW analogs are extended circular structures with a disulfide bond formed between two cysteines in the peptide sequence (cGRGDdXc). D-configuration of two cysteines in these analogs is essential for the antagonistic activity, which can force the cyclopeptide to adopt ..."}, "αvβ3": {"system": "αvβ3", "details": "integrin expressed on K562 cells; cited from earlier work", "text": "as §1"}, "αvβ5": {"system": "αvβ5", "details": "integrin expressed on K562 cells; cited from earlier work", "text": "as §1"}, "α5β1": {"system": "α5β1", "details": "integrin expressed on K562 cells; cited from earlier work", "text": "as §1"}, "[4]": {"details": "series of peptide concentrations competing with 1 μM biotinylated LXW7 binding to αvβ3-K562 cells, flow cytometry, streptavidin-PE, PBS, 10% FBS, 1 mM MnCl2, 30 min on ice, Figure 6C, read-out: IC50"}, "[5]": {"details": "concentration of peptide required for inhibition of 0.5 µmoL/L biotinylated LXW7 binding to K562/αvβ3+ cells by half, Table 1"}, "[6]": {"details": "known IC50s from previous in vitro screening, binding to αvβ3 integrin, Table 3"}}, "note": "Where two headings read alike, the source gives them in different places. Bridge positions count the residues as written; N and C are the ends. Square brackets hold non-standard residues; d marks the D form. Ends that are not written are not given here. Peptide text beside a SMILES is read from it."}
{"compound": "cilengitide", "values": [{"measurement": "IC50", "setting": "αvβ3 integrin [1]", "value": 250, "unit": "nM"}]}
{"compound": "N=C(N)NCCC[C@@H]1NC(=O)CNC(=O)[C@H](N)CSSC[C@H](C(N)=O)NC(=O)[C@@H](Cc2c3ccccc3cc3ccccc23)NC(=O)[C@@H](CC(=O)O)NC(=O)[C@H](CC(=O)O)NC(=O)CNC1=O", "note": "[LXZ2]", "values": [{"measurement": "binding affinity compared with LXW7 in competitive binding", "setting": "αvβ3 integrin [2]; 5 μM peptide competes with 1 μM biotinylated LXW7 binding to αvβ3-K562 cells, flow cytometry, Figure 6B", "value": "stronger binding affinity than the first lead—LXW7"}, {"measurement": "IC50", "setting": "αvβ3 integrin [2]; converted, referred to LXW7 in Table 3, read-out: converted IC50", "value": 90, "unit": "nM"}, {"measurement": "IC50", "setting": "αvβ3 integrin [2]; [4]", "value": 310, "unit": "nM"}]}
{"compound": "CGRGDdvC-NH2 (disulfide) (CGRGD[dD][dV]C-NH2; disulfide 1-8; N-terminus assumed; SMILES CC(C)[C@H]1NC(=O)[C@@H](CC(=O)O)NC(=O)[C@H](CC(=O)O)NC(=O)CNC(=O)[C@H](CCCNC(=N)N)NC(=O)CNC(=O)[C@@H](N)CSSC[C@@H](C(N)=O)NC1=O) [LXW11, LXW7 isomer CGRGDdvC-NH2 with two L-cysteines]", "values": [{"measurement": "IC50", "setting": "αvβ3 integrin [3]; [5]", "value": "> 20000", "unit": "nM"}, {"measurement": "IC50", "setting": "αvβ3 integrin [3]; [6]", "value": "> 20000", "unit": "nM"}]}
{"compound": "CC(C)[C@H]1NC(=O)[C@@H](CC(=O)O)NC(=O)[C@H](CC(=O)O)NC(=O)CNC(=O)[C@H](CCCNC(=N)N)NC(=O)CNC(=O)[C@H](N)CSSC[C@H](C(N)=O)NC1=O", "note": "[LXW7] (H-[dC]GRGD[dD][dV][dC]-NH2; disulfide 1-8)", "values": [{"measurement": "IC50", "setting": "αvβ3 integrin [2]; [4]", "value": 1530, "unit": "nM"}]}
{"compound": "cGRGDd-DNal1-c-NH2 (disulfide) [LXW64, cyclic octapeptide cGRGDd-DNal1-c-NH2 with 3-(1-naphthyl)-D-alanine at X7]", "values": [{"measurement": "higher binding affinity than LXW7", "setting": "αvβ3 integrin [3]; binding affinity to αvβ3 relative to LXW7", "value": 6, "unit": "fold"}, {"measurement": "IC50", "setting": "αvβ3 integrin [3]; [5]", "value": 70, "unit": "nM"}, {"measurement": "IC50", "setting": "αvβ3 integrin [3]; [6]", "value": 70, "unit": "nM"}, {"measurement": "binding to αIIbβ3", "setting": "αIIbβ3", "value": "weak or no binding"}, {"measurement": "binding with αvβ3", "setting": "αvβ3", "value": "significant positive binding"}, {"measurement": "binding to αvβ5", "setting": "αvβ5", "value": "weak or no binding"}, {"measurement": "binding to α5β1", "setting": "α5β1", "value": "weak or no binding"}]}
{"compound": "LXW26: LXW analog with D-Ile as X amino acid (CGRGDDIC; cyclic via D-Cys1-D-Cys8 disulfide; D-Cys1, D-Asp6, D-Ile7, D-Cys8; C-terminal amide (template cGRGDdXc-NH2, X = D-Ile))", "values": [{"measurement": "IC50", "setting": "αvβ3 integrin [3]; [6]", "value": 1840, "unit": "nM"}]}
